Active and inactive are the calls of the source. No rule for the calls is given here.
Columns and labels:
Experiment in all cases: microbial growth inhibition plus red cell haemolysis – Idler compounds, first plate, PMBN-permeabilized strains, profiling panel (AID 2061108)
Design in all cases: haemolysis: dose or concentration left out as unconfirmed
[1] = test system: M. avium growth inhibition, 10 uM; settings: M. avium growth inhibition, 10 µM
[2] = test system: S. aureus ATCC 9144 growth inhibition, 100 uM; settings: S. aureus ATCC 9144 growth inhibition; at 100 µM; stronger effect = higher value
[3] = test system: red blood cell haemolysis; settings: stronger effect = higher value; dose or concentration not given here
[4] = test system: C. albicans NCPF 3281 growth inhibition, 100 uM; settings: S. aureus ATCC 9144 growth inhibition; measured here: C. albicans NCPF 3281; at 100 µM; stronger effect = higher value
[5] = test system: A. baumannii ATCC 17978 + PMBN growth inhibition, 100 uM; settings: A. baumannii plus PMBN growth inhibition, 100 µM; stronger effect = higher value
[6] = test system: E. coli NCTC 12923 + PMBN growth inhibition, 100 uM; settings: S. aureus ATCC 9144 growth inhibition; measured here: E. coli plus PMBN; at 100 µM; stronger effect = higher value
[7] = test system: M. abscessus growth inhibition, 10 uM; settings: S. aureus ATCC 9144 growth inhibition; measured here: M. abscessus; at 10 µM
[8] = test system: A. baumannii ATCC 17978 growth inhibition, 100 uM; settings: S. aureus ATCC 9144 growth inhibition; measured here: A. baumannii ATCC 17978; at 100 µM; stronger effect = higher value
[9] = test system: E. coli NCTC 12923 growth inhibition, 100 uM; settings: E. coli NCTC 12923 growth inhibition, 100 µM; stronger effect = higher value

Q: How did the inhibition [1] turn out when `CCOc1ccc2ncc(C#N)c(N3CCC(C(=O)NCc4ccccc4F)CC3)c2c1` was run?
A: -1.25%

Q: What about the inhibition [2] of the same molecule?
A: -21.2% (inactive)

Q: And the haemolysis [3]?
A: 0.211%

Q: What about the inhibition [4] of the same molecule?
A: -38.3%

Q: And the inhibition [5]?
A: 1%

Q: What about the inhibition [6] of the same molecule?
A: -24%

Q: And the inhibition [7]?
A: -0.367%

Q: And the inhibition [8]?
A: -5.66%

Q: And the inhibition [9]?
A: -44.6%

Q: For `N#Cc1c(Cl)nc2ccccc2c1C(F)(F)F`, which inhibition [1] is on record?
A: 0.667%

Q: And the inhibition [2]?
A: 10% (inactive)

Q: And the haemolysis [3]?
A: 0.129%

Q: What about the inhibition [4] of the same molecule?
A: -47.1%

Q: And the inhibition [5]?
A: 31.1%

Q: And the inhibition [6]?
A: -1.22%

Q: And the inhibition [7]?
A: 0.0452%

Q: What about the inhibition [8] of the same molecule?
A: 3.86%

Q: And the inhibition [9]?
A: -10%

Q: Which inhibition [1] does the source give for `Nc1ncnc2cc(-c3cccc(S(N)(=O)=O)c3)sc12` here?
A: 50.5%

Q: And the inhibition [2]?
A: 27.3%

Q: What about the haemolysis [3] of the same molecule?
A: -0.345%

Q: What about the inhibition [4] of the same molecule?
A: -67.9%

Q: And the inhibition [5]?
A: -11.6%

Q: And the inhibition [6]?
A: 91.6%

Q: What about the inhibition [7] of the same molecule?
A: 0.72%

Q: And the inhibition [8]?
A: -9.52%

Q: And the inhibition [9]?
A: 1.22%

Q: For `O=C(NCCn1ccc2ccccc21)Nc1c[nH]c2ccccc12`, which inhibition [1] is on record?
A: 1.09%

Q: And the inhibition [2]?
A: 1.75% (inactive)

Q: What about the haemolysis [3] of the same molecule?
A: 0.223%

Q: What about the inhibition [4] of the same molecule?
A: -13.8%

Q: What about the inhibition [5] of the same molecule?
A: 55%

Q: And the inhibition [6]?
A: 8.41%

Q: What about the inhibition [7] of the same molecule?
A: 0.723%

Q: And the inhibition [8]?
A: 1.2%

Q: What about the inhibition [9] of the same molecule?
A: -5.81%

Q: `Cn1nc(NC(=O)Nc2ccc(Cl)cc2)cc1C(C)(C)C` was tested. Which inhibition [1] did it give?
A: 0.567%

Q: And the inhibition [2]?
A: -14.7% (inactive)

Q: What about the haemolysis [3] of the same molecule?
A: 0.275%

Q: What about the inhibition [4] of the same molecule?
A: -94%

Q: What about the inhibition [5] of the same molecule?
A: -3%

Q: And the inhibition [6]?
A: -30.4%

Q: And the inhibition [7]?
A: -0.422%

Q: What about the inhibition [8] of the same molecule?
A: -22%

Q: What about the inhibition [9] of the same molecule?
A: -25%

Q: Which inhibition [1] does the source give for `O=C(N/N=C/c1ccncc1O)c1ccncc1` here?
A: -1.89%

Q: And the inhibition [2]?
A: 22% (inactive)

Q: What about the haemolysis [3] of the same molecule?
A: -0.102%

Q: And the inhibition [4]?
A: 79.2%

Q: And the inhibition [5]?
A: 22.8%

Q: And the inhibition [6]?
A: 1.36%

Q: And the inhibition [7]?
A: -0.377%

Q: What about the inhibition [8] of the same molecule?
A: 12.6%

Q: And the inhibition [9]?
A: 18.6%

Q: For `COc1cccc(C(=O)NCCOCc2cccc(N)c2)c1`, which inhibition [1] is on record?
A: 2.24%

Q: And the inhibition [2]?
A: 13.7% (inactive)

Q: And the haemolysis [3]?
A: 0.269%

Q: And the inhibition [4]?
A: -63.9%

Q: What about the inhibition [5] of the same molecule?
A: 23.9%

Q: What about the inhibition [6] of the same molecule?
A: 4.39%

Q: And the inhibition [7]?
A: -0.253%

Q: And the inhibition [8]?
A: -1.45%

Q: And the inhibition [9]?
A: -10.5%

Q: `CC(C)CC(N)C(=O)NS(=O)(=O)c1cccc(-c2cc3ncnc(N)c3s2)c1` (stereo not drawn) was tested. Which inhibition [1] did it give?
A: 12%

Q: What about the inhibition [2] of the same molecule?
A: -17.7% (inactive)

Q: What about the haemolysis [3] of the same molecule?
A: -0.408%

Q: And the inhibition [4]?
A: 43.5%

Q: And the inhibition [5]?
A: -8.7%

Q: And the inhibition [6]?
A: -22.3%

Q: And the inhibition [7]?
A: -0.687%

Q: And the inhibition [8]?
A: -8.69%

Q: What about the inhibition [9] of the same molecule?
A: -84.3%

Q: Which results are given for `Nc1ncnc2cc(-c3cccc(S(=O)(=O)NC(=O)C4CCCN4)c3)sc12` (stereo not drawn)?
A: inhibition [1]: 5.56%; inhibition [2]: 48.7% (inactive); haemolysis [3]: 0.251%; inhibition [4]: -16.7%; inhibition [5]: -10.6%; inhibition [6]: -40.7%; inhibition [7]: -0.89%; inhibition [8]: -13%; inhibition [9]: -67.2%

Q: Which inhibition [1] does the source give for `Oc1ccc(CN2CCN(c3ccccc3F)CC2)c2cccnc12` here?
A: -0.052%

Q: And the inhibition [2]?
A: 6.49%

Q: And the haemolysis [3]?
A: 1.25%

Q: What about the inhibition [4] of the same molecule?
A: 95.2%

Q: And the inhibition [5]?
A: 18.1%

Q: What about the inhibition [6] of the same molecule?
A: 6.46%

Q: What about the inhibition [7] of the same molecule?
A: 0.148%

Q: What about the inhibition [8] of the same molecule?
A: 14.6%

Q: And the inhibition [9]?
A: -2.43%

Q: `N#Cc1ccc(NC2Cc3cccc(O)c3C2)cc1C(F)(F)F` (stereo not drawn) was tested. Which inhibition [1] did it give?
A: -0.176%

Q: And the inhibition [2]?
A: 99.7%

Q: What about the haemolysis [3] of the same molecule?
A: 2.84%

Q: What about the inhibition [4] of the same molecule?
A: 100%

Q: And the inhibition [5]?
A: 100%

Q: What about the inhibition [6] of the same molecule?
A: 100%

Q: And the inhibition [7]?
A: -0.648%

Q: What about the inhibition [8] of the same molecule?
A: 68.5%

Q: And the inhibition [9]?
A: 22.3%

Q: Which inhibition [1] does the source give for `COc1ccc2c(c1)nc(-c1c[nH]c3ccc(N4CCSCC4)cc13)c1[nH]ccc12` here?
A: 3%

Q: What about the inhibition [2] of the same molecule?
A: 98.1%

Q: What about the haemolysis [3] of the same molecule?
A: 1.04%

Q: What about the inhibition [4] of the same molecule?
A: 95%

Q: What about the inhibition [5] of the same molecule?
A: 96.3%

Q: What about the inhibition [6] of the same molecule?
A: 97%

Q: What about the inhibition [7] of the same molecule?
A: 0.136%

Q: What about the inhibition [8] of the same molecule?
A: 98.1%

Q: What about the inhibition [9] of the same molecule?
A: 9.46%
